# Data from patent publication US7030267B2, “Cycloproply β-amino acid derivatives” (Warner-Lambert Company, LLC, priority 2003, dated 2006).
row,melting point,Structure (SMILES)
1,> 220 °C (dec.),"CC(C)CC1CC1(CN)C(=O)O.Cl (stereo not shown) [Example 6, 1-AMINOMETHYL-2-ISOBUTYL-CYCLOPROPANECARBOXYLIC ACID HYDROCHLORIDE]"
2,270 °C (dec.),NCC1(C(=O)O)CC1C1CCCCC1 (stereo not shown)
3,> 250 °C (dec.),"Cl.NCC1(C(=O)O)CC12CCCCC2 (stereo not shown) [Example 1, 1-AMINOMETHYL-SPIRO[2.5]OCTANE-1-CARBOXYLIC ACID HYDROCHLORIDE]"
4,254 to 256 °C,CC1(C)CC1(CN)C(=O)O (stereo not shown)
5,231 to 235 °C (dec.),NCC1(C(=O)O)CC12CCCC2 (stereo not shown)
6,240 to 242 °C,Cl.NCC1(C(=O)O)CC12CCCCC2 (stereo not shown) [Example 14]
7,255 to 257 °C,CCCC1(CCC)CC1(CN)C(=O)O (stereo not shown)
8,255 to 257 °C,CCC(CC)C1CC1(CN)C(=O)O (stereo not shown)
9,245 to 246 °C,CC(C)C1CC1(CN)C(=O)O.Cl (stereo not shown)
10,254 to 255 °C,CC(C)CC1CC1(CN)C(=O)O.Cl (stereo not shown) [Example 15]
